Results taken from publication PMC9139979, “Features of ZED1227: The First-In-Class Tissue Transglutaminase Inhibitor Undergoing Clinical Evaluation for the Treatment of Celiac Disease” (Cells, 2022).

What was measured:
hTG2 = biological target: T1, hTG2 (Homo sapiens, UniProt P21980); assay: Fluorescent transamidation assay (DCC-assay), hTG2; format: biochemical; settings: recombinant human TG2, transamidation assay
T1 construct: purchased Zedira T022
T1 sequence (P21980 1-687): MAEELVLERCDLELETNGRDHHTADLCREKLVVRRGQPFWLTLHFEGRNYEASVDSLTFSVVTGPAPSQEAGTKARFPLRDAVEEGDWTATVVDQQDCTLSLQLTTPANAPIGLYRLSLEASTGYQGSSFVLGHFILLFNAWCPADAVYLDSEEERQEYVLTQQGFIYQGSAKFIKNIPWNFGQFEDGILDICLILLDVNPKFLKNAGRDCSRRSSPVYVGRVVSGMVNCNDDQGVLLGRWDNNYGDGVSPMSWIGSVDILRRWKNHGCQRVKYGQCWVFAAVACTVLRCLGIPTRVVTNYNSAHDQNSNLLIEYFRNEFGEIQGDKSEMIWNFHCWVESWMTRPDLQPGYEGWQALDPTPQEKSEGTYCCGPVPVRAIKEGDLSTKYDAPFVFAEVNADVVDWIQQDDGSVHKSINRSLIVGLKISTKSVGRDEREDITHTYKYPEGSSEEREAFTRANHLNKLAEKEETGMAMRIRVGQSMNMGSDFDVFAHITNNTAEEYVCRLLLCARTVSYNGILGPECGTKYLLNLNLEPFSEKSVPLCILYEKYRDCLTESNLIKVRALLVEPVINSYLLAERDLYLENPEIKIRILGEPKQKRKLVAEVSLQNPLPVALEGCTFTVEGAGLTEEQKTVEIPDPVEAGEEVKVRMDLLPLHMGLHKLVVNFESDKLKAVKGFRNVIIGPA
Method: Inhibition data were determined using the fluorescent transamidation assay (dansylcadaverine incorporation into glutamine-donor substrate N,N-dimethyl casein, DCC-assay). Briefly, to 15 μL of ZED1227 solution (dissolved and serial diluted in 2% (v/v) DMSO/assay buffer), 285 μL assay buffer [47.5 mM tris(hydroxymethyl)aminomethane, 9.5 mM CaCl2, 9.5 mM glutathione, 2.4% (v/v) glycerol, 190 mM NaCl, pH 8.0] containing dansylcadaverine (15.9 μM), N,N-dimethyl casein (3.8 μM) and the indicated recombinant transglutaminase enzyme [0.95 μg/mL hTG1 (T035), 0.81 μg/mL hTG2 (T022), 0.83 μg/mL hTG6 (T021), all from Zedira] were added, mixed and the kinetic measurement started immediately. In the case of hFXIII-A2 (0.83 μg/mL, T027, Zedira), the assay buffer contained human α-thrombin (5.2 × 10^−3 U/μL, T056, Zedira). The mixture was incubated for 20 min at room temperature to activate FXIII. In the case of hTG3a (0.81 μg/mL, T013, Zedira), full enzymatic activity was obtained by incubation for 80 min at 37 °C in assay buffer before addition of the inhibitor and start of the kinetics.
Fluorescence emission was continuously monitored for 30 min at λem = 500 nm (λex = 330 nm) and 37 °C using a CLARIOstar fluorescence plate reader (BMG Labtech, Ortenberg, Germany). All measurements were performed in triplicate. The respective IC50 (and IC90 for TG2) values were calculated by non-linear regression using the MARS software package (BMG Labtech). An irreversible-acting inhibitor, such as ZED1227, should, correctly, be characterized by the second-order rate constant k2nd, as detailed by Keillor [46]. However, such data are rather abstract and difficult to comprehend.
To facilitate comparability during lead structure optimization and to roughly estimate concentrations needed at the target site, the apparent IC50 values (calculated by four-parameter non-linear fit by MARS software) for irreversible inhibitors are more instructive and are therefore reported. Further, we report the potency of commercially available reference inhibitors Z006 (“Z-DON”), Z013 (ZED754), and T101 (all Zedira). To gain deeper mechanistic insight, we discuss the second-order rate constants (k2nd) published for Z006 and ZED754 in relation to their respective IC50 values.

hTG3 = biological target: T2, hTG3 (Homo sapiens, UniProt Q08188); assay: Fluorescent transamidation assay (DCC-assay), hTG3; format: biochemical
T2 construct: purchased Zedira T013
T2 sequence (Q08188 2-467 limits assumed): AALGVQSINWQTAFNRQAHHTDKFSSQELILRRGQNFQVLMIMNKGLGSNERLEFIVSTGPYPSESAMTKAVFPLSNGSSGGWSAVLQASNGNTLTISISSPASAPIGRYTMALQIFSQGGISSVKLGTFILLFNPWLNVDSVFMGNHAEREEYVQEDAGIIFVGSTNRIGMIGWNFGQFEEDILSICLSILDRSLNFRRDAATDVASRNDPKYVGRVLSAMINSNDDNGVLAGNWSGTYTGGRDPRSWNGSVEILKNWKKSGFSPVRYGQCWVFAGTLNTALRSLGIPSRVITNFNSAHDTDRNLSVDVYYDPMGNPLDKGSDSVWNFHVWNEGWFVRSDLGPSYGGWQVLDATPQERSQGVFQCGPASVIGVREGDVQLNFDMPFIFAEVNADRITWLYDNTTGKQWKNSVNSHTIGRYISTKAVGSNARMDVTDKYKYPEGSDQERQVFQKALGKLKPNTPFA
T2 sequence (Q08188 468-693 partner limits assumed): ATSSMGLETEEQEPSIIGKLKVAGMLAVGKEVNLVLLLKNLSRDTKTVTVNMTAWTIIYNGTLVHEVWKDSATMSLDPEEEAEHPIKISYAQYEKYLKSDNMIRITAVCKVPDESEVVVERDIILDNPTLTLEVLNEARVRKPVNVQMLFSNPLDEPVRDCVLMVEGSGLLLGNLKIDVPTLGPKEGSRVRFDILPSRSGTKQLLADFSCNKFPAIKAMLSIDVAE

For `CCC(CC)CNC(=O)Cn1cccc(NC(=O)[C@H](CC/C=C/C(=O)OC)NC(=O)c2cncn2C)c1=O` [ZED1227, (S,E)-Methyl 7-(1-(2-(2-ethylbutylamino)-2-oxoethyl)-2-oxo-1,2-dihydropyridin-3-ylamino)-6-(1-methyl-1H-imidazole-5-carboxamido)-7-oxohept-2-enoate], the IC90 (hTG2) was 300 nM, the IC50 (hTG2; apparent IC50 of irreversible inhibitor, read-out: App. IC50 hTG2) was 53 nM and the “Selectivity hTG3 versus hTG2” value (hTG3; ratio of app. IC50 values) was greater than 900 fold. For the same molecule, the IC50 (hTG3; recombinant, activated hTG3a, transamidation assay, read-out: App. IC50 hTG3) was greater than 50000 nM.
